The values that follow come from patent US20100249145A1, “Inhibitors of VEGF Receptor and HGF Receptor Signaling” (Methylgene, Inc., priority 2005, published 2010).

Experiment [1] addresses T1, recombinant human c-Met/HGF receptor (Homo sapiens, UniProt P08581).
T1 construct: His tag (histidine tag from pBlueBacHis2A); made in house; host or cells: Hi-5 cells (Trichoplusia ni), recombinant baculovirus
Nature of the experiment: In vitro receptor tyrosine kinase assay (DELFIA), c-Met/HGF receptor. The format is biochemical. To be noted: ATP 10 uM, enzyme 25 nM.

Experiment [2] deals with T2, VEGF receptor KDR (Homo sapiens, UniProt P35968).
T2 construct: made in house; host or cells: Sf9 cells (Spodoptera frugiperda), recombinant baculovirus
T2 sequence (P35968 806-1356): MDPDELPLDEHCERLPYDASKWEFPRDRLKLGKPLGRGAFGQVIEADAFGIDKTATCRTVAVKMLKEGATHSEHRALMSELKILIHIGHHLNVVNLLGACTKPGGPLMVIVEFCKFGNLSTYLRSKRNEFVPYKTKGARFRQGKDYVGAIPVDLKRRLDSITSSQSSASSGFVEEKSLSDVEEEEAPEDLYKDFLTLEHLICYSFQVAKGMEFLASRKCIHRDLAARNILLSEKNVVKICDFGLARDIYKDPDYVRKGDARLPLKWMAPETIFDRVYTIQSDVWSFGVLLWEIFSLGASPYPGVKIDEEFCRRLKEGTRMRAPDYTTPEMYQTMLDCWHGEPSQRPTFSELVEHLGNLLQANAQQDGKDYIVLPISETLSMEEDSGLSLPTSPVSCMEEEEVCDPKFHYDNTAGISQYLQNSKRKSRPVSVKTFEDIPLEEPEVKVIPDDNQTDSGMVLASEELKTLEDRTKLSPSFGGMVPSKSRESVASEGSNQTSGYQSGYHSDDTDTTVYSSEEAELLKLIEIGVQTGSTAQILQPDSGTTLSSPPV
Nature of the experiment: In vitro receptor tyrosine kinase assay (DELFIA), VEGF receptor KDR. To be noted: ATP 0.6 uM, enzyme 5 nM. The format is biochemical. From the text: In Vitro Receptor Tyrosine Kinase Assays (c-Met/HGF receptor and VEGF Receptor KDR)
In the case of VEGF receptor KDR a 1.6-kb cDNA corresponding to the catalytic domain of VEGFR2 or KDR (Genbank accession number AF035121 amino acid 806 to 1356) was cloned into the Pst I site of the pDEST20 Gateway vector (Invitrogen) for the production of a GST-tagged version of that enzyme.
The GST-VEGFR2806-1356 protein was expressed in Sf9 cells (Spodoptera frugiperda) upon infection with recombinant baculovirus construct.
The supernatant was loaded onto a GST-agarose column (Sigma) equilibrated with PBS pH 7.3. Following a four column volume (CV) wash with PBS pH 7.3+1% Triton X-100 and 4 CV wash with buffer B (50 mM Tris pH 8.0, 20% glycerol and 100 mM NaCl), bound proteins were step eluted with 5 CV of buffer B supplemented with 5 mM DTT and 15 mM glutathion. […] Final GST-VEGFR2806-1356 protein preparations concentrations were about 0.7 mg/ml with purity approximating 70%.

Experiment [3] relates to DU145. Nature of the experiment: DU145 scattering inhibition (HGF dependent scattering). The format is cell-based. To be noted: Homo sapiens, DU-145, Table 31, read-out: DU145 scattering inhib IC50. From the text: (§1) HGF has well known activity in terms of inducing scattering and migration (wound healing) (Wells et al., Cell Motil Cytoskeleton. 2005 November 62(3):180-94; Miura et al., Urology 2001 December 58(6):1064-9; Nishimura et al., Int J. Urol. 1998 May 5(3):276-81; Wang et al., Mol Cancer Ther. 2003 November; 2(11):1085-92; and Christensen et al., Cancer Res. 2003 Nov. 1; 63(21):7345-55).

Experiment [4] deals with A549. Nature of the experiment: A549 wound healing inhibition (HGF dependent migration). In kind it is cell-based. The conditions noted are these: Homo sapiens, Table 31, read-out: A549 wound healing inbib IC50.
From the text: as §1

Setting [5] is: Table 30, read-out: C-Met (enz.) (IC50).
Setting [6] is: Table 30, read-out: VEGF(enz.) (IC50).

Each structure is given as a SMILES string. Read-outs that look alike come from different tables or passages of the source. Bounds are passed on as bounds.

T1 sequence (P08581 1078-1337): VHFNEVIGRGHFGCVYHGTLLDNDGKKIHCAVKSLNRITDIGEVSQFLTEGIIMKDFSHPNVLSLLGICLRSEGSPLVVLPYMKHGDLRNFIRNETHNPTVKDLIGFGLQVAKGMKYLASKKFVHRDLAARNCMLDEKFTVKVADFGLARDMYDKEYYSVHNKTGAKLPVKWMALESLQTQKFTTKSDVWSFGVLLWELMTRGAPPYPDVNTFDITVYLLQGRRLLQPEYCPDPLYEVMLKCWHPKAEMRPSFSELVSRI

A word on the IC50: it is the concentration that inhibits the measured activity by half. `CON(C)C(=O)c1cc2ncnc(Oc3ccc(NC(=S)NC(=O)Cc4ccccc4)cc3F)c2s1` [Example 26, 1-(4-(6-(N-Methoxy-N-methylcarbamoyl)thieno [3,2-d]pyrimidin-4-yloxy)-3-fluorophenyl)-3-(2-phenylacetyl)thiourea]: the IC50 in experiment [1] (setting [5]) and in experiment [2] (setting [6]) was 50 to 250 nM each time.

Turning to `CNC(=O)c1cc2nccc(Oc3ccc(NC(=S)NC(=O)Cc4ccccc4)cc3F)c2s1` [Example 5, 1-(4-(2-(methylcarbamoyl)thieno[3,2-b]pyridin-7-yloxy)-3-fluorophenyl)-3-(2-phenylacetyl)thiourea], the IC50 in experiment [2] (setting [6]) lay within 50 to 250 nM.

As to `C#Cc1cc(F)ccc1CC(=O)NC(=S)Nc1ccc(Oc2ccnc3cc(-c4cn(CC)cn4)sc23)c(F)c1`, the IC50 was below 1000 nM in experiment [3]; below 1000 nM in experiment [4]; below 50 nM in experiment [1] (Table 31, read-out: CMet ic50); below 50 nM in experiment [2] (Table 31, read-out: VEGFR IC50).

As for `CCn1cncc1-c1cc2nccc(Oc3ccc(NC(=S)NC(=O)Cc4ccccc4OC)cc3F)c2s1`, the IC50 in experiment [3] was below 1000 nM; in experiment [4] it was 1000 to 5000 nM; in experiment [1] (Table 31, read-out: CMet ic50), below 50 nM.

In the case of `C#Cc1cc(F)ccc1CC(=O)NC(=S)Nc1ccc(Oc2ccnc3cc(-c4ccc(CN5CCN(C)CC5)cc4)sc23)c(F)c1`, the IC50 in experiment [3] was below 1000 nM; in experiment [4] it was 1000 to 5000 nM; in experiment [1] (Table 31, read-out: CMet ic50), below 50 nM; in experiment [2] (Table 31, read-out: VEGFR IC50), below 50 nM.

In the case of `CN1CCN(CCN(C)Cc2ccc(-c3cc4nccc(Oc5ccc(NC(=S)NC(=O)Cc6ccccc6)cc5F)c4s3)cc2)CC1`, the IC50 is below 1000 nM in experiment [3]; below 1000 nM in experiment [4]; below 50 nM in experiment [1] (Table 31, read-out: CMet ic50); below 50 nM in experiment [2] (Table 31, read-out: VEGFR IC50).

Regarding `C#Cc1ccc(CC(=O)NC(=S)Nc2ccc(Oc3ccnc4cc(-c5cn(CC)cn5)sc34)c(F)c2)cc1`, the IC50 is 1000 to 5000 nM in experiment [3]; 1000 to 5000 nM in experiment [4]; 50 to 250 nM in experiment [1] (Table 31, read-out: CMet ic50); below 50 nM in experiment [2] (Table 31, read-out: VEGFR IC50).

With `Cn1ccc2ncnc(Oc3ccc(NC(=S)NC(=O)Cc4ccccc4)cc3F)c21` [Example 28, 1-(4-(5-Methyl-5H-pyrrolo[3,2-d]pyrimidin-4-yloxy)-3-fluorophenyl)-3-(2-phenylacetyl)thiourea], the figures for the IC50 in experiment [1] (setting [5]) and in experiment [2] (setting [6]) were 50 to 250 nM and above 500 nM, respectively.

Turning to `CCn1cnc(-c2cc3nccc(Oc4ccc(NC(=S)NC(=O)Cc5ccccc5C)cc4F)c3s2)c1` [drawing 441], the IC50 in experiment [3] is below 1000 nM; in experiment [4], below 1000 nM; in experiment [1] (Table 31, read-out: CMet ic50), below 50 nM; in experiment [2] (Table 31, read-out: VEGFR IC50) it was below 50 nM.

Regarding `C#Cc1ccccc1CC(=O)NC(=S)Nc1ccc(Oc2ccnc3cc(C4=CCN(C)CC4)sc23)c(F)c1`, the IC50 in experiment [3] is below 1000 nM; in experiment [4], below 1000 nM; in experiment [1] (Table 31, read-out: CMet ic50), below 50 nM; in experiment [2] (Table 31, read-out: VEGFR IC50), 50 to 250 nM.

On to `C=C(F)c1ccccc1CC(=O)NC(=S)Nc1ccc(Oc2ccnc3cc(-c4cn(C)cn4)sc23)c(F)c1`, for which the IC50 in experiment [3] is below 1000 nM; in experiment [4] it was below 1000 nM; in experiment [1] (Table 31, read-out: CMet ic50) it was below 50 nM; in experiment [2] (Table 31, read-out: VEGFR IC50) it was below 50 nM.

With `CN1CCN(Cc2ccc(-c3cc4nccc(Oc5ccc(NC(=S)NC(=O)Cc6ccc(F)cc6)cc5F)c4s3)cc2)CC1`, the IC50 was below 1000 nM in experiment [3]; below 1000 nM in experiment [4]; below 50 nM in experiment [1] (Table 31, read-out: CMet ic50); below 50 nM in experiment [2] (Table 31, read-out: VEGFR IC50).

In the case of `CNC(=O)c1cc2ncnc(Oc3ccc(NC(=S)NC(=O)Cc4ccccc4)cc3F)c2s1` [Example 25, 1-(4-(6-(Methylcarbamoyl)thieno[3,2-d]pyrimidin-4-yloxy)-3-fluorophenyl)-3-(2-phenylacetyl)thiourea], the IC50 in experiment [1] (setting [5]) and in experiment [2] (setting [6]) was 50 to 250 nM in each case.

As for `NC(=O)c1cc2nccc(Oc3ccc(NC(=S)NC(=O)Cc4ccccc4)cc3F)c2s1` [Example 9, 1-(4-(2-carbamoylthieno[3,2-b]pyridin-7-yloxy)-3-fluorophenyl)-3-(2-phenylacetyl)thiourea], in experiment [2] (setting [6]), the IC50 is 50 to 250 nM.

Take `C#Cc1cc(F)ccc1CC(=O)NC(=S)Nc1ccc(Oc2ccnc3cc(C4=CCN(C)CC4)sc23)c(F)c1`: the IC50 in experiment [3] is below 1000 nM; in experiment [4], below 1000 nM; in experiment [1] (Table 31, read-out: CMet ic50), below 50 nM; in experiment [2] (Table 31, read-out: VEGFR IC50), 50 to 250 nM.

As for `C#Cc1ccc(F)c(CC(=O)NC(=S)Nc2ccc(Oc3ccnc4cc(-c5cn(C)cn5)sc34)c(F)c2)c1`, the IC50 in experiment [3] was 1000 to 5000 nM; in experiment [4], 1000 to 5000 nM; in experiment [1] (Table 31, read-out: CMet ic50) it was below 50 nM; in experiment [2] (Table 31, read-out: VEGFR IC50), below 50 nM.

In the case of `C#Cc1ccccc1CC(=O)NC(=S)Nc1ccc(Oc2ccnc3cc(-c4nccn4CC)sc23)c(F)c1`, the IC50 in experiment [3] is below 1000 nM; in experiment [4] it was below 1000 nM; in experiment [1] (Table 31, read-out: CMet ic50), below 50 nM; in experiment [2] (Table 31, read-out: VEGFR IC50), below 50 nM.

For `O=C(Cc1ccccc1)NC(=S)Nc1ccc(Oc2ccnc3cc(-c4ccc(CN5CCNCC5)cc4)sc23)c(F)c1`, the IC50 in experiment [3] is below 1000 nM; in experiment [4] it was 1000 to 5000 nM; in experiment [1] (Table 31, read-out: CMet ic50) it was below 50 nM; in experiment [2] (Table 31, read-out: VEGFR IC50) it was below 50 nM.

Regarding `O=C(Cc1ccc(F)cc1)NC(=S)Nc1ccc(Oc2ccnc3cc(-c4cc[n+]([O-])cc4)sc23)c(F)c1`, the IC50 in experiment [3] is below 1000 nM; in experiment [4], below 1000 nM; in experiment [1] (Table 31, read-out: CMet ic50), below 50 nM; in experiment [2] (Table 31, read-out: VEGFR IC50) it was 50 to 250 nM.

Regarding `COCCN(CCOC)Cc1cccc(-c2cc3nccc(Oc4ccc(NC(=S)NC(=O)Cc5ccc(F)cc5)cc4F)c3s2)c1`, the IC50 is below 1000 nM in experiment [3]; below 1000 nM in experiment [4]; below 50 nM in experiment [1] (Table 31, read-out: CMet ic50).

As for `O=C(Cc1ccccc1)NC(=S)Nc1ccc(Oc2ccnc3ccsc23)cc1` [Example 188, 2-Phenyl-N-(4-(thieno[3,2-b]pyridin-7-yloxy)phenylcarbamothioyl)acetamide], the IC50 in experiment [2] (setting [6]) was above 500 nM.

Consider `CC(O)c1cc2nccc(Oc3ccc(NC(=S)NC(=O)Cc4ccccc4)cc3F)c2s1` (centres unmarked) [Example 20, 1-(4-(2-(1-Hydroxyethyl)thieno[3,2-b]pyridin-7-yloxy)-3-fluorophenyl)-3-(2-phenylacetyl)thiourea], for which the IC50 in experiment [2] (setting [6]) is above 500 nM.

For `CCCNCc1ccc(-c2cc3nccc(Oc4ccc(NC(=S)NC(=O)Cc5ccc(F)cc5)cc4F)c3s2)cc1`, the IC50 in experiment [3] and in experiment [4] was below 1000 nM each time.

`O=C(Cc1ccccc1)NC(=S)Nc1ccc(Oc2ccnc3cc(-c4ncccn4)sc23)c(F)c1` [Example 14, N-(3-Fluoro-4-(2-(pyrimidin-2-yl)thieno[3,2-b]pyridin-7-yloxy)phenylcarbamothioyl)-2-phenylacetamide]: the IC50 in experiment [2] (setting [6]) was 50 to 250 nM.

For `O=C(Cc1ccccc1)NC(=S)Nc1ccc(Oc2ccnc3cc(-c4cccnc4)sc23)c(F)c1` [Example 18], in experiment [2] (setting [6]), the IC50 fell in the range of 50 to 250 nM.

On to `CCn1ccc2ncnc(Oc3ccc(NC(=S)NC(=O)Cc4ccccc4)cc3F)c21` [Example 29, 1-(4-(5-Ethyl-5H-pyrrolo[3,2-d]pyrimidin-4-yloxy)-3-fluorophenyl)-3-(2-phenylacetyl)thiourea], for which the values for the 50% inhibitory concentration (IC50) in experiment [1] (setting [5]) and in experiment [2] (setting [6]) were 250 to 500 nM and above 500 nM, respectively.

Take `Cc1ccccc1CC(=O)NC(=S)Nc1ccc(Oc2ccnc3cc(-c4cn(C)cn4)sc23)c(F)c1`: the IC50 in experiment [4] is below 1000 nM; in experiment [1] (Table 31, read-out: CMet ic50), below 50 nM; in experiment [2] (Table 31, read-out: VEGFR IC50), below 50 nM.

On to `COCCNCc1ccc(-c2cc3nccc(Oc4ccc(NC(=S)NC(=O)Cc5ccc(F)cc5)cc4F)c3s2)c(F)c1`, for which the IC50 in experiment [3] and in experiment [4] was below 1000 nM throughout.

Take `NC(=O)c1cc2ncnc(Oc3ccc(NC(=S)NC(=O)Cc4ccccc4)cc3F)c2s1` [Example 27, 1-(4-(6-Carbamoylthieno[3,2-d]pyrimidin-4-yloxy)-3-fluorophenyl)-3-(2-phenylacetyl)thiourea]: the IC50 in experiment [1] (setting [5]) and in experiment [2] (setting [6]) was 50 to 250 nM each time.

For `CN(CCO)Cc1ccc(-c2cc3nccc(Oc4ccc(NC(=S)NC(=O)Cc5ccc(F)cc5)cc4F)c3s2)nc1`, the IC50 in experiment [3] was below 1000 nM; in experiment [1] (Table 31, read-out: CMet ic50) it was below 50 nM; in experiment [2] (Table 31, read-out: VEGFR IC50), below 50 nM.

`COCCNCc1ccc(-c2cc3nccc(Oc4ccc(NC(=S)NC(=O)Cc5ccc(F)cc5)cc4F)c3s2)nc1`: the concentration for half-maximal inhibition (IC50) is below 1000 nM in experiment [3]; below 1000 nM in experiment [4]; below 50 nM in experiment [2] (Table 31, read-out: VEGFR IC50).

As for `O=C(Cc1ccccc1)NC(=S)Nc1ccc(Oc2ccnc3ccsc23)c(F)c1` [Example 133, N-(3-Fluoro-4-(thieno[3,2-b]pyridin-7-yloxy)phenylcarbamothioyl)-2-phenylacetamide], in experiment [2] (setting [6]), the IC50 is 50 to 250 nM.

`O=C(Cc1ccccc1)NC(=S)Nc1ccc(Oc2ccnc3cc(-c4cccs4)sc23)c(F)c1` [Example 16]: the IC50 in experiment [2] (setting [6]) was below 50 nM.
